# Like-named read-outs stand apart in the source and are kept apart here.
# What was measured:
# E. faecalis OG1RF = test: Combined activity with gentamicin, vancomycin or ampicillin, E. faecalis OG1RF; format: cell-based, Enterococcus faecalis; conditions: gentamicin 16 μg/ml; for Synergistic effect when combined with gentamicin: 24 h; for E. faecalis activity, combination with gentamicin compared to gentamicin alone, compound alone and comparative example alone / E. faecalis activity, combination with gentamicin compared to the combination of the comparative example and gentamicin: subinhibitory compound 1-4 μM, OD600 24 h
# Description: […]. The concentrations used in the experiments with E. faecalis OG1RF were 16 μg/ml gentamicin, 1 μg/ml vancomycin or 1 μg/ml ampicillin. In experiments where combinations were tested against MRSA 1369, 0.05 μg/ml gentamicin, 1 μg/ml vancomycin or 16 μg/ml ampicillin was used.
# Bacterial cultures (190 μl) at a starting OD=0.001 at OD600 were incubated together with either subinhibitory concentrations of gentamicin/vancomycin/ampicillin or compound alone, or a combination of the two. The cultures (200 μl) were incubated at 37° C. for 24 h. A control sample without compound and gentamicin/vancomycin/ampicillin but containing compound vehicle (DMSO) and gentamicin/vancomycin/ampicillin vehicle (MQ water) was performed the same way. After 24 h, the effect on bacterial growth compared to untreated control samples was determined by measuring optical density at 600 nm with a spectrophotometer.
# […]. MIC/MBC values for the compounds administered alone are also shown for comparison. Unless otherwise stated, the compound was provided in a concentration of 1 μM.
# E. faecalis [1] = test: Minimum Inhibitory Concentration (MIC) assay, E. faecalis; format: cell-based, Enterococcus faecalis; conditions: for MIC: read-out: MIC for E. faecalis; for Growth inhibition of the pathogen of interest compared to the compound of Example 14 in WO 2018/229141: conclusion from Table 3 (E. faecalis and MRSA)
# Description: (§1) The cultures (200 μl) were incubated at 37° C. for 24 h. […] The MIC was measured in micromolar concentration, i.e. μM. Objectively, this was determined by measuring the optical density (i.e. OD) of the test cultures at 600 nm using a spectrophotometer. As used herein, OD600 stands for optical density at a wavelength of 600 nm (i.e. 600 nanometers).
# MRSA [2] = test: Minimum Bactericidal Concentration (MBC) assay, MRSA; conditions: for MBC: Staphylococcus aureus, MRSA; for MBC for MRSA: Table 3
# MRSA [3] = test: Minimum Inhibitory Concentration (MIC) assay, MRSA; format: cell-based, Methicillin-resistant Staphylococcus aureus; conditions: 24 h, read-out: MIC for MRSA
# Description: as §1
# E. faecalis [4] = test: Minimum Bactericidal Concentration (MBC) assay, E. faecalis; conditions: for MBC: Enterococcus faecalis, read-out: MBC for E. faecalis
# [5] = compound 1 μM, n.d. = activity not observed
# [6] = Enterococcus faecalis, 24 h, Table 3, compound alone, no antibiotic, 24 h, 37° C., OD600, first figure of MIC/MBC, n.d. = activity not observed at the concentrations tested
# [7] = read-out: MBC for MRSA, Table 3, compound alone, no antibiotic, MIC cultures plated on BHI, second figure of MIC/MBC, n.d. = activity not observed at the concentrations tested
# [8] = Staphylococcus aureus, MRSA, Table 3, compound alone, no antibiotic, 37° C., OD600, first figure of MIC/MBC, n.d. = activity not observed at the concentrations tested
# [9] = Table 3, compound alone, no antibiotic, 24 h, 37° C., OD600, first figure of MIC/MBC, n.d. = activity not observed at the concentrations tested
# [10] = compound alone, no antibiotic, MIC cultures plated on BHI, second figure of MIC/MBC, n.d. = activity not observed at the concentrations tested
# [11] = Table 3, compound alone, no antibiotic, 37° C., OD600, first figure of MIC/MBC, n.d. = activity not observed at the concentrations tested
MIC (E. faecalis [1]; [6]) [µM],MIC (MRSA [3]; [8]) [µM],SMILES,Synergistic effect when combined with gentamicin (E. faecalis OG1RF; [5]),"E. faecalis activity, combination with gentamicin compared to gentamicin alone, compound alone and comparative example alone (E. faecalis OG1RF)",Growth inhibition of the pathogen of interest compared to the compound of Example 14 in WO 2018/229141 (E. faecalis [1]; compound alone),MBC (MRSA [2]; [7]) [µM],further results
4,3,O=C(O)C12C[C@@H](c3cccc(Br)c3)C1Sc1c(C3CC3)c(Cc3cccc4ccccc34)cc(=O)n12 (stereo partly drawn) [Example 17],Yes,much larger extent,substantially similar extent or to a higher extent,7.5,"OD600 at 24 h when combined with gentamicin (E. faecalis OG1RF; compound 1 μM): OD 600 = 0; E. faecalis activity, combination with gentamicin compared to the combination of the comparative example and gentamicin (E. faecalis OG1RF): much larger extent; MIC (E. faecalis [1]; Enterococcus faecalis, Table 4, compound administered alone, first figure of MIC/MBC, n.d. = activity not observed): 4 µM; MBC (E. faecalis [4]): 25 µM"
25,7.5,COc1c(Cc2cccc3ccccc23)c(N(C)C)c(=O)n2c1SC1[C@H](c3cccc(C(F)(F)F)c3)CC12C(=O)O (stereo partly drawn) [Example 29],–,–,–,7.5,–
–,50,O=c1cc(Cc2cccc3ccccc23)c(-c2cccc(C(F)(F)F)c2)c2n1C(CCB(O)O)CS2 (stereo not drawn) [Example 37],–,–,–,–,OD600 at 24 h when combined with gentamicin (E. faecalis OG1RF; compound 10 μM): OD600 = 0; Synergistic effect when combined with gentamicin (E. faecalis OG1RF; compound 10 μM): Yes

# The next lines start with the compound.
SMILES,MIC (E. faecalis [1]; [6]) [µM],MIC (MRSA [3]; [8]) [µM],Synergistic effect when combined with gentamicin (E. faecalis OG1RF; [5]),"E. faecalis activity, combination with gentamicin compared to gentamicin alone, compound alone and comparative example alone (E. faecalis OG1RF)",Growth inhibition of the pathogen of interest compared to the compound of Example 14 in WO 2018/229141 (E. faecalis [1]; compound alone),MBC (MRSA [2]; [7]) [µM],further results
Cc1cccc([C@@H]2CC3(C(=O)O)C2Sc2c(C4CC4)c(Cc4cccc5ccccc45)cc(=O)n23)c1 (stereo partly drawn) [Example 19A],–,–,Yes,–,substantially similar extent or to a higher extent,–,"MIC (E. faecalis [1]; Enterococcus faecalis, 24 h): 7.5 µM; MIC (E. faecalis [1]; Enterococcus faecalis): 7.5 µM; MBC (MRSA [2]; read-out: MBC for MRSA): 10 µM; MIC (MRSA [3]; Staphylococcus aureus, MRSA): 5 µM; MBC (E. faecalis [4]): 25 µM"
"O=C(O)C12C[C@@H](c3cccc(C(F)(F)F)c3)C1Sc1c(C3CC3)c(Cc3cccc4ccccc34)cc(=O)n12 (single isomer, unassigned) [Example 2]",–,–,Yes,–,–,–,"OD600 at 24 h when combined with gentamicin (E. faecalis OG1RF; compound 1 μM): OD600 = 0.1; MIC (E. faecalis [1]; [9]): 10 µM; MIC (E. faecalis [1]; Table 4, compound administered alone, first figure of MIC/MBC, n.d. = activity not observed): 10 µM; MBC for MRSA (MRSA [2]; [10]): 10 µM; MIC (MRSA [3]; [11]): 5 µM"
O=C(O)C12C[C@H](c3cc(Cl)cc(Cl)c3)C1Sc1c(C3CC3)c(Cc3cccc4ccccc34)cc(=O)n12 (stereo partly drawn) [Example 16],10,10,–,–,–,–,–
CCCOc1ccc([C@@H]2CC3(C(=O)O)C2Sc2c(C4CC4)c(Cc4cccc5ccccc45)cc(=O)n23)cc1C (stereo partly drawn) [Example 22],4,4,–,much larger extent,substantially similar extent or to a higher extent,4,"E. faecalis activity, combination with gentamicin compared to the combination of the comparative example and gentamicin (E. faecalis OG1RF): much larger extent"
O=C(O)C12C[C@H](Sc3ccccc3)C1Sc1c(C3CC3)c(Cc3cccc4ccccc34)cc(=O)n12 (stereo partly drawn) [Example 28],–,25,–,–,–,–,–
Cc1cc(C)cc([C@@H]2CC3(C(=O)O)C2Sc2c(C4CC4)c(Cc4cccc(Cl)c4Cl)cc(=O)n23)c1 (stereo partly drawn) [Example 31],–,5,–,–,–,–,–
O=C(O)C12C[C@@H](c3cccc(Cl)c3)C1Sc1c(C3CC3)c(Cc3cccc4ccccc34)cc(=O)n12 (stereo partly drawn) [Example 11],–,–,–,much larger extent,substantially similar extent or to a higher extent,–,"MIC (E. faecalis [1]; [9]): 4 µM; MBC for MRSA (MRSA [2]; [10]): 10 µM; MIC (MRSA [3]; [11]): 4 µM; MBC for E. faecalis (E. faecalis [4]; Table 3, compound alone, no antibiotic, MIC cultures plated on BHI, second figure of MIC/MBC, n.d. = activity not observed at the concentrations tested): 25 µM"
